Assay results taken from a melting point compilation (Tetko et al.; mined from patent text by program, amines drawn as free bases though some values may be those of a salt).

| SMILES | melting point [°C] |
| --- | --- |
| O=C(O)c1cc2c(s1)-c1ccccc1OC2C1=CCCC=C1 (stereo not drawn) | 258 to 260 |
| CC1=C(c2ccncc2Cl)SCC(=O)N1 | 169 to 171 |
| ClC(Cl)(Cl)c1cc(-c2ccccc2)c2ccc3c(-c4ccccc4)cc(C(Cl)(Cl)Cl)nc3c2n1 | 180 to 184 |
| OC(c1ccc2cc(-c3n[nH]c4ccsc34)[nH]c2c1)(C1CC1)C1CC1 | 110 to 112 |
| Brc1ccc2c(c1)OC(c1ccccc1)(c1ccccc1)O2 | 88 to 89 |
| COc1ccc(Nc2cc(N3CCCC3)nc(N3CCCC3)n2)cc1 | 162 to 163 |
| OC1(c2ccoc2)CN2CCC1CC2 (stereo not drawn) | 130 to 133 |
| C=CCN1CCC2(c3cccc(O)c3)CCCC2C1 (stereo not drawn) | 106 to 108 |
| CN=C1N(C)C(=O)CN1c1ccc(Cl)cc1 | 150 to 152 |
| CC(=O)NCCC1CCc2ccc3ocnc3c21 (stereo not drawn) | 89 to 92 |
| CC(=O)N[C@H]1C[C@H](C)N(C(=O)OC(C)(C)C)C1 | 108 to 110 |
| Cc1c(C2CCC(c3ccccc3)(N(C)C)CC2)[nH]c2ccc(O)cc12 (stereo not drawn) | 164 to 169 |
| [O-][N+]1=C(c2ccccc2F)c2cc(Cl)ccc2-n2cnc(N3CCCC3)c2C1 | 190 to 192 |
| CC1(c2ccccc2)OC(C(=O)O)Oc2ccccc21 (stereo not drawn) | 153 |
| CC(=O)N1N=C(c2ccc(N)cc2)c2cc(Cl)ccc2CC1C (stereo not drawn) | 187 to 189 |
| O=C(CCCCCl)Nc1nnc(SCc2ccccc2)s1 | 145 to 148 |
| NS(=O)(=O)c1ccc(-n2nc(CF)cc2-c2ccccc2)cc1 | 162 to 163 |

Results, then the compound that gave them:

| melting point [°C] | SMILES |
| --- | --- |
| 190 | CCCCCCCCCCCCCCCCSC(=O)Nc1ccc(NC(=O)NS(=O)(=O)c2ccc3ccccc3c2)cc1 |
| 146 to 148 | CCCC(=O)OCc1ccc2oc(=O)c(C(=O)Oc3cncc(Cl)c3)cc2c1 |
| 250 | CCOc1cc(-c2cc(C(F)F)n3ncc(C(=O)Nc4cccc(S(=O)(=O)NC(C)(C)CO)c4)c3n2)ccc1C(F)(F)F |
| 72 | COC(=O)C1=C(C)NC(C)=C(C(=O)OCCCOc2ccc(CCCCO)cc2)C1c1cccc([N+](=O)[O-])c1 (stereo not drawn) |
| 121 to 122 | COCN1C(C)=C(C(=O)O)C(c2ccccc2)C(C(=O)OCOC(=O)C(C)(C)C)=C1C (single isomer, unassigned; (+)) |
| 108 to 112 | COC(=O)c1cc(N2CCCC2)c(Oc2ccccc2)c(S(=O)(=O)Cl)c1 |
| 178 to 181 | CC(C)Oc1ccccc1N1CCN(Cc2cccc(CC3NC(=O)NC3=O)c2)CC1 (stereo not drawn) |
| 138 to 139 | O=C1CCCCN1CCC(=O)N1CCC(C2c3ncc(Br)cc3CCc3cc(Cl)cc(Br)c32)CC1 (single isomer, unassigned; (+)) |
| 136 | CCOC(=O)CC(C(=O)OCC)N1CCN(CC2CN(c3ccc(C(=N)NC(=O)c4ccccc4)cc3)C(=O)O2)CC1 (stereo not drawn) |
| 97 to 100 | COC(=O)COc1ccc(C(O)CNCc2ccc(C(=O)OC)cc2)cc1 (stereo not drawn) |
| 211 to 212 | O=C(Cn1c(-c2ccc(Cl)cc2)nc2cccnc21)c1ccccc1 |
| 118 to 119 | Cc1oc(-c2ccccc2)nc1COc1ccc(COc2nn(-c3ccccc3)cc2CO)cc1 |
| 47 to 49 | Cn1ccc2ccc(CO)cc21 |
| 141 to 143 | O=C1CC(Cl)=C(Cl)c2nc3cc(Cl)ccc3c(NCc3ccccc3)c21 |
| 257 to 260 | Nc1ccc(-n2ccc(=O)cc2)cc1N |
| 143 to 146 | CN(O)C(=O)C1=Cc2cc(OCc3ccccc3)ccc2OC1 |
| 143 to 149 | O=C1c2cc(O)ccc2NCC1Cc1ccccc1 (stereo not drawn) |
| 229 to 230 | O=c1nc(-c2nccs2)sc2ccccc12 |
| 152 to 154 | CC1=NN=C(c2ccc(NC=O)cc2)c2cc3c(cc2C1)OCO3 |
| 236 to 238 | CS(=O)(=O)Nc1cc2occ(NC=O)c(=O)c2cc1Oc1ccccc1 |
| 129 to 130 | CC(C)C(C(=O)O)c1ccc2ccccc2c1 (stereo not drawn) |
